Test results as given in US12065442B2, “Tropomyosin receptor kinase (TRK) degradation compounds and methods of use” (Cullgen (Shanghai), Inc., priority 2018, dated 2024).
Like-named read-outs stand apart in the source and are kept apart here.

Tested on: KM12 cells
Test: Cell viability assay (CellTiter-Glo) in KM12 cells
Type: cell-based
Conditions: Homo sapiens, 72 h, KM12 cell viability, CellTiter-Glo, 3 days, read-out: IC50

Structure (SMILES)	IC50 (Table 3) [nM]	further results
O=C(CN1CCN(c2cccc(-c3cnc4ccc(N5CCC[C@@H]5c5cccc(F)c5)nn34)n2)CC1)NCCCNc1cccc2c1C(=O)N(C1CCC(=O)NC1=O)C2=O (stereo partly drawn) [TR-109, N-(3-((2-(2,6-dioxopiperidin-3-yl)-1,3-dioxoisoindolin-4-yl)amino)propyl)-2-(4-(6-(6-((R)-2-(3-fluorophenyl)pyrrolidin-1-yl)imidazo[1,2-b]pyridazin-3-yl)pyridin-2-yl)piperazin-1-yl)acetamide]	3.6	–
O=C1CCC(N2C(=O)c3cccc(NCCCC(=O)N4CCN(c5cccc(-c6cnc7ccc(N8CCC[C@@H]8c8cccc(F)c8)nn67)n5)CC4)c3C2=O)C(=O)N1 (stereo partly drawn) [CPD-013, 2-(2,6-Dioxopiperidin-3-yl)-4-((4-(4-(6-(6-((R)-2-(3-fluorophenyl)pyrrolidin-1-yl)imidazo[1,2-b]pyridazin-3-yl)pyridin-2-yl)piperazin-1-yl)-4-oxobutyl)amino)isoindoline-1,3-dione]	–	IC50 (Table 2): 10.2 nM
O=C1CCC(N2C(=O)c3ccc(NCCCOCCN4CCN(c5cccc(-c6cnc7ccc(N8CCC[C@@H]8c8cccc(F)c8)nn67)n5)CC4)cc3C2=O)C(=O)N1 (stereo partly drawn) [TR-199]	39.8	–
O=C1CCC(N2C(=O)c3ccc(NCCC(=O)N4CCN(c5ccc(C(=O)Nc6n[nH]c7ccc(Cc8cc(F)cc(F)c8)cc67)c(NC6CCOCC6)c5)CC4)cc3C2=O)C(=O)N1 (stereo not drawn) [TR-145, N-(5-(3,5-Difluorobenzyl)-1H-indazol-3-yl)-4-(4-(3-((2-(2,6-dioxopiperidin-3-yl)-1,3-dioxoisoindolin-5-yl)amino)propanoyl)piperazin-1-yl)-2-((tetrahydro-2H-pyran-4-yl)amino)benzamide]	3.1	–
O=C1CCC(N2C(=O)c3ccc(NCCOCCOCCOCCOCCOCCC(=O)N4CCN(c5cccc(-c6cnc7ccc(N8CCC[C@@H]8c8cccc(F)c8)nn67)n5)CC4)cc3C2=O)C(=O)N1 (stereo partly drawn) [TR-116, 2-(2,6-Dioxopiperidin-3-yl)-5-((18-(4-(6-(6-((R)-2-(3-fluorophenyl)pyrrolidin-1-yl)imidazo[1,2-b]pyridazin-3-yl)pyridin-2-yl)piperazin-1-yl)-18-oxo-3,6,9,12,15-pentaoxaoctadecyl)amino)isoindoline-1,3-dione]	2	–
O=C(CN1CCN(c2ccc(C(=O)Nc3n[nH]c4ccc(Cc5cc(F)cc(F)c5)cc34)c(NC3CCOCC3)c2)CC1)NCCCCCNc1ccc2c(c1)C(=O)N(C1CCC(=O)NC1=O)C2=O (stereo not drawn) [TR-164, N-(5-(3,5-Difluorobenzyl)-1H-indazol-3-yl)-4-(4-(2-((5-((2-(2,6-dioxopiperidin-3-yl)-1,3-dioxoisoindolin-5-yl)amino)pentyl)amino)-2-oxoethyl)piperazin-1-yl)-2-((tetrahydro-2H-pyran-4-yl)amino)benzamide]	7.8	–
O=C(CN1CCN(c2cccc(-c3cnc4ccc(N5CCC[C@@H]5c5cccc(F)c5)nn34)n2)CC1)NCCCCCCCNc1cccc2c1C(=O)N(C1CCC(=O)NC1=O)C2=O (stereo partly drawn) [TR-110, N-(7-((2-(2,6-dioxopiperidin-3-yl)-1,3-dioxoisoindolin-4-yl)amino)heptyl)-2-(4-(6-(6-((R)-2-(3-fluorophenyl)pyrrolidin-1-yl)imidazo[1,2-b]pyridazin-3-yl)pyridin-2-yl)piperazin-1-yl)acetamide]	35.9	–
O=C1CCC(N2C(=O)c3cccc(NCCOCCOCCOCCOCCC(=O)N4CCN(c5cccc(-c6cnc7ccc(N8CCC[C@@H]8c8cccc(F)c8)nn67)n5)CC4)c3C2=O)C(=O)N1 (stereo partly drawn) [CPD-021, 2-(2,6-Dioxopiperidin-3-yl)-4-((15-(4-(6-(6-((R)-2-(3-fluorophenyl)pyrrolidin-1-yl)imidazo[1,2-b]pyridazin-3-yl)pyridin-2-yl)piperazin-1-yl)-15-oxo-3,6,9,12-tetraoxapentadecyl)amino)isoindoline-1,3-dione]	–	IC50 (Table 2): 27.4 nM
O=C1CCC(N2C(=O)c3ccc(NCCCCC(=O)N4CCN(c5ccc(C(=O)Nc6n[nH]c7ccc(Cc8cc(F)cc(F)c8)cc67)c(NC6CCOCC6)c5)CC4)cc3C2=O)C(=O)N1 (stereo not drawn) [TR-142, N-(5-(3,5-Difluorobenzyl)-1H-indazol-3-yl)-4-(4-(5-((2-(2,6-dioxopiperidin-3-yl)-1,3-dioxoisoindolin-5-yl)amino)pentanoyl)piperazin-1-yl)-2-((tetrahydro-2H-pyran-4-yl)amino)benzamide]	3.4	–
O=C1CCC(N2Cc3cc(OCCN4CCN(c5cccc(-c6cnc7ccc(N8CCC[C@@H]8c8cccc(F)c8)nn67)n5)CC4)ccc3C2=O)C(=O)N1 (stereo partly drawn) [TR-200, 3-(5-(2-(4-(6-(6-((R)-2-(3-fluorophenyl)pyrrolidin-1-yl)imidazo[1,2-b]pyridazin-3-yl)pyridin-2-yl)piperazin-1-yl)ethoxy)-1-oxoisoindolin-2-yl)piperidine-2,6-dione]	101	–
O=C1CCC(N2C(=O)c3cccc(NCCCCCC(=O)N4CCN(c5cccc(-c6cnc7ccc(N8CCC[C@@H]8c8cccc(F)c8)nn67)n5)CC4)c3C2=O)C(=O)N1 (stereo partly drawn) [CPD-015]	–	IC50 (Table 2): 14.9 nM
O=C1CCC(N2C(=O)c3ccc(NCCC4CN(c5cccc(-c6cnc7ccc(N8CCC[C@@H]8c8cccc(F)c8)nn67)n5)C4)cc3C2=O)C(=O)N1 (stereo partly drawn) [TR-193, 2-(2,6-Dioxopiperidin-3-yl)-5-((2-(1-(6-(6-((R)-2-(3-fluorophenyl)pyrrolidin-1-yl)imidazo[1,2-b]pyridazin-3-yl)pyridin-2-yl)azetidin-3-yl)ethyl)amino)isoindoline-1,3-dione]	1100	–
O=C1CCC(N2Cc3cc(NCC4CN(c5cccc(-c6cnc7ccc(N8CCC[C@@H]8c8cccc(F)c8)nn67)n5)C4)ccc3C2=O)C(=O)N1 (stereo partly drawn) [TR-210, 3-(5-(((1-(6-(6-((R)-2-(3-Fluorophenyl)pyrrolidin-1-yl)imidazo[1,2-b]pyridazin-3-yl)pyridin-2-yl)azetidin-3-yl)methyl)amino)-1-oxoisoindolin-2-yl)piperidine-2,6-dione]	–	IC50 (Table 4): 14 nM
Cn1c(=O)n(C2CCC(=O)NC2=O)c2cccc(NCCCN3CCN(c4cccc(-c5cnc6ccc(N7CCC[C@@H]7c7cccc(F)c7)nn56)n4)CC3)c21 (stereo partly drawn) [TR-217, 3-[4-[3-[4-[6-[6-[(2R)-2-(3-Fluorophenyl)pyrrolidin-1-yl]imidazo[1,2-b]pyridazin-3-yl]-2-pyridyl]piperazin-1-yl]propylamino]-3-methyl-2-oxo-benzimidazol-1-yl]piperidine-2,6-dione]	–	IC50 (Table 4): 4 nM
O=C1CCC(N2C(=O)c3ccc(NCCOCCOCCC(=O)N4CCN(c5cccc(-c6cnc7ccc(N8CCC[C@@H]8c8cccc(F)c8)nn67)n5)CC4)cc3C2=O)C(=O)N1 (stereo partly drawn) [TR-113, 2-(2,6-Dioxopiperidin-3-yl)-5-((2-(2-(3-(4-(6-(6-((R)-2-(3-fluorophenyl)pyrrolidin-1-yl)imidazo[1,2-b]pyridazin-3-yl)pyridin-2-yl)piperazin-1-yl)-3-oxopropoxy)ethoxy)ethyl)amino)isoindoline-1,3-dione]	1.3	–
O=C1CCC(N2C(=O)c3ccc(NCCCC(=O)N4CCN(c5ccc(C(=O)Nc6n[nH]c7ccc(Cc8cc(F)cc(F)c8)cc67)c(NC6CCOCC6)c5)CC4)cc3C2=O)C(=O)N1 (stereo not drawn) [TR-169, N-(5-(3,5-Difluorobenzyl)-1H-indazol-3-yl)-4-(4-(4-((2-(2,6-dioxopiperidin-3-yl)-1,3-dioxoisoindolin-5-yl)amino)butanoyl)piperazin-1-yl)-2-((tetrahydro-2H-pyran-4-yl)amino)benzamide]	1.6	–
O=C(CN1CCN(c2cccc(-c3cnc4ccc(N5CCC[C@@H]5c5cccc(F)c5)nn34)n2)CC1)NCCCCNc1ccc2c(c1)C(=O)N(C1CCC(=O)NC1=O)C2=O (stereo partly drawn) [TR-124, N-(4-((2-(2,6-dioxopiperidin-3-yl)-1,3-dioxoisoindolin-5-yl)amino)butyl)-2-(4-(6-(6-((R)-2-(3-fluorophenyl)pyrrolidin-1-yl)imidazo[1,2-b]pyridazin-3-yl)pyridin-2-yl)piperazin-1-yl)acetamide]	2.8	–
O=C(CN1CCN(c2cccc(-c3cnc4ccc(N5CCC[C@@H]5c5cccc(F)c5)nn34)n2)CC1)NCCOCCOCCOCCNc1ccc2c(c1)C(=O)N(C1CCC(=O)NC1=O)C2=O (stereo partly drawn) [TR-129, N-(2-(2-(2-(2-((2-(2,6-dioxopiperidin-3-yl)-1,3-dioxoisoindolin-5-yl)amino)ethoxy)ethoxy)ethoxy)ethyl)-2-(4-(6-(6-((R)-2-(3-fluorophenyl)pyrrolidin-1-yl)imidazo[1,2-b]pyridazin-3-yl)pyridin-2-yl)piperazin-1-yl)acetamide]	4.4	–
O=C1CCC(N2Cc3cc(N4CCN(c5cccc(-c6cnc7ccc(N8CCC[C@@H]8c8cccc(F)c8)nn67)n5)CC4)ccc3C2=O)C(=O)N1 (stereo partly drawn) [TR-207, 3-(5-(4-(6-(6-((R)-2-(3-Fluorophenyl)pyrrolidin-1-yl)imidazo[1,2-b]pyridazin-3-yl)pyridin-2-yl)piperazin-1-yl)-1-oxoisoindolin-2-yl)piperidine-2,6-dione]	–	IC50 (Table 4): 31.3 nM
Cc1ncsc1-c1ccc(CNC(=O)[C@@H]2C[C@@H](O)CN2C(=O)[C@@H](NC(=O)CCC(=O)N2CCN(c3ccc(C(=O)Nc4n[nH]c5ccc(Cc6cc(F)cc(F)c6)cc45)c(NC4CCOCC4)c3)CC2)C(C)(C)C)cc1 [CPD-046, (2S,4R)-1-((S)-2-(4-(4-(4-((5-(3,5-Difluorobenzyl)-1H-indazol-3-yl)carbamoyl)-3-((tetrahydro-2H-pyran-4-yl)amino)phenyl)piperazin-1-yl)-4-oxobutanamido)-3,3-dimethylbutanoyl)-4-hydroxy-N-(4-(4-methylthiazol-5-yl)benzyl)pyrrolidine-2-carboxamide]	–	IC50 (Table 2): 700 nM
O=C1CCC(N2C(=O)c3ccc(NCCCCC(=O)N4CCN(c5cccc(-c6cnc7ccc(N8CCC[C@@H]8c8cccc(F)c8)nn67)n5)CC4)cc3C2=O)C(=O)N1 (stereo partly drawn) [TR-115, 2-(2,6-Dioxopiperidin-3-yl)-5-((5-(4-(6-(6-((R)-2-(3-fluorophenyl)pyrrolidin-1-yl)imidazo[1,2-b]pyridazin-3-yl)pyridin-2-yl)piperazin-1-yl)-5-oxopentyl)amino)isoindoline-1,3-dione]	0.9	–
